Source: ChEMBL document CHEMBL1150573, “Three new triterpenes from the seeds of Combretum quadrangulare and their hepatoprotective activity” (J Nat Prod, 2001)
Active and inactive are the calls of the source. No cut-off for these calls is given here.

Tests used:
[1] = test system: Hepatocyte; assay: Hepatoprotective activity against D-galactosamine/TNFalpha-induced cell death in primary cultured mouse hepatocytes treated for 30 mins before TNFalpha challenge measured after 18 hrs by MTT assay; assay type: functional, cell-based
[2] = test system: Hepatocyte; assay: Hepatoprotective activity against D-galactosamine/TNFalpha-induced cell death in primary cultured mouse hepatocytes at 25 uM treated for 30 mins before TNFalpha challenge measured after 18 hrs by MTT assay relative to control; assay type: functional
[3] = test system: Hepatocyte; assay: Hepatoprotective activity against D-galactosamine/TNFalpha-induced cell death in primary cultured mouse hepatocytes assessed as cell viability at 100 uM treated for 30 mins before TNFalpha challenge measured after 18 hrs by MTT assay relative to normal hepatocytes; assay type: functional; details: read-out: Activity
[4] = test system: Hepatocyte; assay: Hepatoprotective activity against D-galactosamine/TNFalpha-induced cell death in primary cultured mouse hepatocytes at 50 uM treated for 30 mins before TNFalpha challenge measured after 18 hrs by MTT assay relative to control; assay type: functional
[5] = test system: Hepatocyte; assay: Hepatoprotective activity against D-galactosamine/TNFalpha-induced cell death in primary cultured mouse hepatocytes assessed as cell viability at 50 uM treated for 30 mins before TNFalpha challenge measured after 18 hrs by MTT assay relative to normal hepatocytes; assay type: functional; details: read-out: Activity
[6] = test system: Hepatocyte; assay: Hepatoprotective activity against D-galactosamine/TNFalpha-induced cell death in primary cultured mouse hepatocytes at 100 uM treated for 30 mins before TNFalpha challenge measured after 18 hrs by MTT assay relative to control; assay type: functional
[7] = test system: Hepatocyte; assay: Hepatoprotective activity against D-galactosamine/TNFalpha-induced cell death in primary cultured mouse hepatocytes assessed as cell viability at 25 uM treated for 30 mins before TNFalpha challenge measured after 18 hrs by MTT assay relative to normal hepatocytes; assay type: functional; details: read-out: Activity

SMILES	Activity [1]	inhibition at 25 µM [2] [%]	viability at 100 µM [3] [%]	inhibition at 50 µM [4] [%]	viability at 50 µM [5] [%]	inhibition at 100 µM [6] [%]	viability at 25 µM [7] [%]	IC50 [1] [µM]
C[C@@H]1CC[C@]2(C(=O)O)CC[C@]3(C)C(=CC[C@@H]4[C@@]5(C)C[C@@H](O)[C@H](O)[C@@](C)(CO)[C@@H]5CC[C@]43C)[C@@H]2[C@]1(C)O	inactive	–	–	–	–	–	–	–
C[C@H]1[C@H](C)CC[C@]2(C(=O)O[C@@H]3O[C@H](CO)[C@@H](O)[C@H](O)[C@H]3O)CC[C@]3(C)C(=CC[C@@H]4[C@@]5(C)C[C@@H](O)[C@H](O)[C@@](C)(CO)[C@@H]5CC[C@]43C)[C@H]12	inactive	–	–	–	–	–	–	–
CC[C@H](CC[C@@H](C)[C@H]1CC[C@H]2[C@@H]3CC=C4C[C@@H](O)CC[C@]4(C)[C@H]3CC[C@]12C)C(C)C [BETA-SITOSTEROL]	–	17.7	27.3	28.1	26.4	32.5	24.3	–
C=C(C)[C@@H]1CC[C@]2(C(=O)O)CC[C@]3(C)[C@H](CC[C@@H]4[C@@]5(C)C[C@@H](O)[C@H](O)[C@@](C)(CO)[C@@H]5[C@H](O)C[C@]43C)[C@@H]12	–	36.4	36	46.2	30.6	71.7	28.6	51.2
C=C(C)[C@@H]1CC[C@]2(C(=O)O)CC[C@]3(C)[C@H](CC[C@@H]4[C@@]5(C)C[C@@H](O)[C@H](O)C(C)(C)[C@@H]5[C@H](O)C[C@]43C)[C@@H]12	–	5.9	47.6	35.8	28.4	128	22.2	60.9
C[C@@H]1CC[C@]2(C(=O)O[C@@H]3O[C@H](CO)[C@@H](O)[C@H](O)[C@H]3O)CC[C@]3(C)C(=CC[C@@H]4[C@@]5(C)C[C@@H](O)[C@H](O)[C@@](C)(CO)[C@@H]5CC[C@]43C)[C@@H]2[C@]1(C)O	inactive	–	–	–	–	–	–	–
CC1(C)[C@@H](O[C@H]2O[C@H](C(=O)O)[C@@H](O)[C@H](O)[C@H]2O[C@@H]2O[C@H](C(=O)O)[C@@H](O)[C@H](O)[C@H]2O)CC[C@]2(C)[C@H]3C(=O)C=C4[C@@H]5C[C@@](C)(C(=O)O)CC[C@]5(C)CC[C@@]4(C)[C@]3(C)CC[C@@H]12 [GLYCYRRHIZIN]	–	–	–	–	–	–	–	> 200
C=C(C)[C@@H]1CC[C@]2(C(=O)O[C@@H]3O[C@H](CO)[C@@H](O)[C@H](O)[C@H]3O)CC[C@]3(C)[C@H](CC[C@@H]4[C@@]5(C)C[C@@H](O)[C@H](O)C(C)(C)[C@@H]5[C@H](O)C[C@]43C)[C@@H]12	Active	–	–	–	–	–	–	–
CC1=C2C3=CC[C@@H]4[C@@]5(C)C[C@@H](O)[C@H](O)[C@@](C)(CO)[C@@H]5CC[C@@]4(C)[C@]3(C)CC[C@@]2(C(=O)O)CC[C@H]1C	–	40.6	51.5	47.4	30.8	150	29.4	51
CC1=C2C3=CC[C@@H]4[C@@]5(C)C[C@@H](O)[C@H](O)[C@@](C)(CO)[C@@H]5[C@H](O)C[C@@]4(C)[C@]3(C)CC[C@@]2(C(=O)O[C@@H]2O[C@H](CO)[C@@H](O)[C@H](O)[C@H]2O)CC[C@H]1C	Active	–	–	–	–	–	–	–
COc1cc(C2Oc3cc([C@H]4Oc5cc(O)cc(O)c5C(=O)[C@@H]4O)ccc3OC2CO)ccc1O (stereo not given in full) [SILIBININ]	–	44.9	47.9	68.2	35.1	129	30.2	29.9
CC1(C)CC[C@]2(C(=O)O)CC[C@]3(C)C(=CC[C@@H]4[C@@]5(C)C[C@@H](O)[C@H](O)C(C)(C)[C@@H]5[C@H](O)C[C@]43C)[C@@H]2[C@@H]1O	–	15.4	26.1	18	24.7	24.4	24.2	–
CC1(C)CC[C@]2(C(=O)O)CC[C@]3(C)C(=CC[C@@H]4[C@@]5(C)C[C@@H](O)[C@H](O)[C@@](C)(CO)[C@@H]5CC[C@]43C)[C@@H]2C1 [ARJUNOLIC ACID]	–	19.1	43.6	33.8	28	108	24.9	58.4
C=C(C)[C@@H]1CC[C@]2(C(=O)O[C@@H]3O[C@H](CO)[C@@H](O)[C@H](O)[C@H]3O)CC[C@]3(C)[C@H](CC[C@@H]4[C@@]5(C)C[C@@H](O)[C@H](O)[C@@](C)(CO)[C@@H]5[C@H](O)C[C@]43C)[C@@H]12	Active	–	–	–	–	–	–	–
CC1(C)CC[C@]2(C(=O)O)CC[C@]3(C)C(=CC[C@@H]4[C@@]5(C)C[C@@H](O)[C@H](O)C(C)(C)[C@@H]5CC[C@]43C)[C@@H]2[C@@H]1O [ARJUNIC ACID]	–	26.7	27.8	27	26.6	32.9	26.5	–
